Where a name gives a salt, the structure may show the parent alone.
How the values were obtained:
Type in all cases: physicochemical
[1] = Accelerated aging conditions (AAC; 40° C./75% RH), solids reanalyzed by XRPD; conditions: solid form by XRPD
Protocol: (§1) Next, the resulting solids were combined with another solvent (acetonitrile (AcN) or ethanol) and the resulting mixtures were stirred at room temperature (RT). After stirring, the solids were isolated by centrifugation and part of the solids was harvested on a 96-well plate and dried under ambient conditions. The remaining part of the solids was dried under vacuum (5 mbar [i.e. 500 Pa], RT, 18 h). All solids were analyzed by XRPD, subjected to accelerated aging conditions (AAC; 40° C./75% RH) and reanalyzed by XRPD. The procedure and resulting tosylate forms are shown in the table below, wherein forms were identified by XRD.
as §1, with “chloroform)” for “ethanol)”, “mbar,” for “mbar [i.e. 500 Pa],”, “AAC (accelerated” for “accelerated”, “conditions;” for “conditions (AAC;”, “XRPD.” for “XRPD. The procedure and resulting tosylate forms are shown in the table below, wherein forms were identified by XRD.”
(§2) Next, the resulting solids were combined with another solvent (AcN, diethyl ether, or toluene), and the resulting mixtures were stirred at room temperature (RT). After stirring, the solids were isolated by centrifugation and part of the solids was harvested on a 96-well plate and dried under ambient conditions. The remaining part of the solids was dried under vacuum (5 mbar, RT, 18 h). All solids were analyzed by XRPD, subjected to AAC (40° C./75% RH) and reanalyzed by XRPD.
as §2, with “(1,4-dioxane, acetonitrile, ethyl acetate),” for “(AcN, diethyl ether, or toluene),”
as §2, with “(acetonitrile or” for “(AcN,”, “ether),” for “ether, or toluene),”

[2] = Solubility of free base and salt forms; conditions: for solubility at 24 h: thermodynamic from solid; for solubility compared with the free base: physiological conditions, salt forms versus free base
Description: (§3) FaSSGF is Fasted State Simulated Gastric Fluid. Solubility is reported in mg/mL.

[3] = pH of the solubility samples
Protocol: The pH was recorded with a Metrohm 913 PH meter, equipped with a WTW SenTix® MIC-B electrode.
as §3

[4] = Repeat XRD of amorphous free base from slow evaporation of ethanol solution; conditions: product of slow evaporation of ethanol solution of form I
Protocol: Initial attempts to generate an amorphous form of the free base were conducted by slow evaporation of a form I solution. In particular, form I was dissolved in ethanol according to the chart below and then allowed to slowly evaporate.

[5] = Medium 100 mM phosphate, pH Buffer 6.8

Compound	3 days AAC (XRPD form) [1]	Solubility (2 h) [2, 5]	Solubility (24 h) [2, 5]	Solubility (2 h) ([2]; Medium FaSSGF, pH Buffer 1.6)	Solubility (24 h) ([2]; Medium FaSSGF, pH Buffer 1.6)	solubility compared with the free base [2]	pH (30 min) [3, 5]	pH (2 h) [3, 5]	pH (24 h) [3, 5]	pH (30 min) ([3]; Medium FaSSGF, pH Buffer 1.6)	pH (2 h) ([3]; Medium FaSSGF, pH Buffer 1.6)	pH (24 h) ([3]; Medium FaSSGF, pH Buffer 1.6)	further results
CCC(CC)c1cc(N[C@H]2CC[C@H](N)C2)n2nccc2n1 [Fumarate IV]	Form III												
CCC(CC)c1cc(N[C@H]2CC[C@H](N)C2)n2nccc2n1 [Fumarate II]	Form III												
CCC(CC)c1cc(N[C@H]2CC[C@H](N)C2)n2nccc2n1 [Free base I, (1S,3S)—N^1—(5-(pentan-3-yl)pyrazolo[1,5-α]pyrimidin-7-yl)cyclopentane-1,3-diamine]													solubility at 24 h ([2]; 50 mM phosphate buffer, pH 1.6, aqueous buffer, Medium 50 mM phosphate, pH Buffer 1.6 as printed): 9.8 mg/mL; solubility at 24 h ([2]; FaSSGF (Fasted State Simulated Gastric Fluid), pH 7.4, fassgf or other biorelevant, Medium FaSSGF, pH Buffer 7.4 as printed): 5.9 mg/mL; solubility ([2]; water): 5.9 mg/mL; solubility at 24 h ([2]; water, Medium Water): 5.1 mg/mL; pH (24 h) ([3]; Medium 50 mM phosphate, pH Buffer 1.6 as printed): 9.4; pH (24 h) ([3]; Medium FaSSGF, pH Buffer 7.4 as printed): 10.2; pH (24 h) ([3]; Medium Water): 10.1
CCC(CC)c1cc(N[C@H]2CC[C@H](N)C2)n2nccc2n1 [Camsylate II]	Form II	28.9 mg/mL	42.2 mg/mL	>380 mg/mL	>380 mg/mL	increased	4.1	7.4	7.5	1.6	1.7	1.7	5 days AAC (XRPD form) [1]: Form III
CCC(CC)c1cc(N[C@H]2CC[C@H](N)C2)n2nccc2n1 [amorphous product]													XRD of amorphous product after about 45 minutes [4]: began crystalizing
CCC(CC)c1cc(N[C@H]2CC[C@H](N)C2)n2nccc2n1 [Fumarate III]		>107 mg/mL	>107 mg/mL	>48 mg/mL	>48 mg/mL	increased	4.5	7.2	7.3	4.1	1.6	1.7	
CCC(CC)c1cc(N[C@H]2CC[C@H](N)C2)n2nccc2n1 [Citrate I]		>137 mg/mL	>137 mg/mL	>127 mg/mL	>127 mg/mL	increased	4.5	6.7	6.7	4.4	1.6	1.6	

The next lines start with results.

3 days AAC (XRPD form) [1]	Solubility (2 h) [2, 5]	Solubility (24 h) [2, 5]	Solubility (2 h) ([2]; Medium FaSSGF, pH Buffer 1.6)	Solubility (24 h) ([2]; Medium FaSSGF, pH Buffer 1.6)	solubility compared with the free base [2]	pH (30 min) [3, 5]	pH (2 h) [3, 5]	pH (24 h) [3, 5]	pH (30 min) ([3]; Medium FaSSGF, pH Buffer 1.6)	pH (2 h) ([3]; Medium FaSSGF, pH Buffer 1.6)	pH (24 h) ([3]; Medium FaSSGF, pH Buffer 1.6)	Compound	further results
Form III												CCC(CC)c1cc(N[C@H]2CC[C@H](N)C2)n2nccc2n1 [fumarate salt]	
Form II												CCC(CC)c1cc(N[C@H]2CC[C@H](N)C2)n2nccc2n1 [Oxalate II]	5 days AAC (XRPD form) [1]: Form II
	55.5 mg/mL	38.1 mg/mL	>392 mg/mL	>392 mg/mL	increased	2.1	6.7	6.8	1.6	1.6	1.5	CCC(CC)c1cc(N[C@H]2CC[C@H](N)C2)n2nccc2n1 [Oxalate III]	
	8.7 mg/mL	2.92 mg/mL	>129 mg/mL	>129 mg/mL	increased	2.7	6.8	7.0	1.0	1.9	2.1	CCC(CC)c1cc(N[C@H]2CC[C@H](N)C2)n2nccc2n1 [Tosylate III]	
Form II												CCC(CC)c1cc(N[C@H]2CC[C@H](N)C2)n2nccc2n1 [Tosylate amorphous]	5 days AAC (XRPD form) [1]: Form II

From patent US20250059193A1, “POLYMORPHIC AND SALT FORMS OF (1S,3S)-N1-(5-(PENTAN-3-YL)PYRAZOLO[1,5-A]PYRIMIDIN-7-YL) CYCLOPENTANE-1,3-DIAMINE” (Kronos Bio, Inc., priority 2021, published 2025)
